Reference: patent US9809583B2 (priority 2014, dated 2017)
Structures can show the parent of a compound that is named as a salt.

These compounds were tested against androgen receptor (hAR) (Homo sapiens (Human), UniProt P10275) (assay: Test of transcriptional activity (hAR / ARE-Luc dual-luciferase assay in CHO cells)). Details: EC50 [nM] (mean ± SE), CHO cells with hAR and ARE-Luc, 24 hours; 10 nM DHT = 100%.
Assay type: cell-based
Method: In order to examine the transcriptional activity of the agonists of the present invention, the following in-vitro experiment was performed. CHO (Chinese hamster ovary) cell line (ATCC, #CCL-61) was seeded in a 96-well plate at a density of 1.5×10^4 cells/well, and cultured for 24 hours. Then, a plasmid hAR and plasmid ARE-Luc-mixed medium was added thereto. The transfected cell line was treated with 0.1˜10,000 nM of SARM derivatives, and then allowed to react for 24 hours.

Sequence of androgen receptor (hAR) (P10275 whole entry): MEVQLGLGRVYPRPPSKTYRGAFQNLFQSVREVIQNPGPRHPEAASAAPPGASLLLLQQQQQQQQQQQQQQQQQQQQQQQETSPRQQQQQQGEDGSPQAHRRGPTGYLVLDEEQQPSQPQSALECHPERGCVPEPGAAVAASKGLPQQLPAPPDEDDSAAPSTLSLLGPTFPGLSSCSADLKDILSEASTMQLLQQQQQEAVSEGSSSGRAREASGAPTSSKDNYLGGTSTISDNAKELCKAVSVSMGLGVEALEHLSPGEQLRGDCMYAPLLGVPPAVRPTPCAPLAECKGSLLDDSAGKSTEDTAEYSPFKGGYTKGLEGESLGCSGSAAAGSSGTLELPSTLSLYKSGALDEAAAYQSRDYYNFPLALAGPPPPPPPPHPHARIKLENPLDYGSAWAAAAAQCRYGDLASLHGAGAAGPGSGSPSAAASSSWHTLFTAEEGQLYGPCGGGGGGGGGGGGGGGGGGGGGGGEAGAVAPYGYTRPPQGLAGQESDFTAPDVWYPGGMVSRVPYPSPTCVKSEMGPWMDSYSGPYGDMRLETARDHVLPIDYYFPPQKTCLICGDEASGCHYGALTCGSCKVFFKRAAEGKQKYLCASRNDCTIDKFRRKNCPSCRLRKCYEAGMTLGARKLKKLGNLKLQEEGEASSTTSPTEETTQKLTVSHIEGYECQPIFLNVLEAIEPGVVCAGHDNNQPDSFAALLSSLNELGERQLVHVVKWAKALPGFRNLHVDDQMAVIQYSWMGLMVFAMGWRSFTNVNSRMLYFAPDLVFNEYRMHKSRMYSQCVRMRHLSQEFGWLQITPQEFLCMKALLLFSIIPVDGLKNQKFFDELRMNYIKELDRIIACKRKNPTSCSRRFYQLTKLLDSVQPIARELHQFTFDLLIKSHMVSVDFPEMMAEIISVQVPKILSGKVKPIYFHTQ

| SMILES | EC50 |
| --- | --- |
| N#Cc1ccc(NC(=O)[C@@H]2CN(c3ccc(C#N)c(C(F)(F)F)c3)[C@@H](C(F)(F)F)O2)c(F)c1 [Example 139, (2R,5S)-N-(4-cyano-2-fluorophenyl)-3-(4-cyano-3-(trifluoromethyl)phenyl)-2-(trifluoromethyl)oxazolidine-5-carboxamide] | 2.74 nM |
| N#Cc1ccc(N2C[C@@H](C(=O)Nc3ccc(F)c(F)c3)O[C@@H]2C(F)(F)F)cc1C(F)(F)F [Example 140, (2R,5S)-3-(4-cyano-3-(trifluoromethyl)phenyl)-N-(3,4-difluorophenyl)-2-(trifluoromethyl)oxazolidine-5-carboxamide] | 14.7 nM |
| N#Cc1cccc(NC(=O)[C@@H]2CN(c3ccc(C#N)c(C(F)(F)F)c3)[C@@H](C(F)(F)F)O2)c1 [Example 141, (2R,5S)-3-(4-cyano-3-(trifluoromethyl)phenyl)-N-(3-cyanophenyl)-2-(trifluoromethyl)oxazolidine-5-carboxamide] | 44.2 nM |
| N#Cc1ccc(N2C[C@@H](C(=O)Nc3ccnc(Cl)c3)O[C@@H]2C(F)(F)F)cc1C(F)(F)F [Example 142, (2R,5S)-N-(2-chloropyridin-4-yl)-3-(4-cyano-3-(trifluoromethyl)phenyl)-2-(trifluoromethyl)oxazolidine-5-carboxamide] | 0.79 nM |
| N#Cc1ccc(NC(=O)[C@@H]2CN(c3ccc(C#N)c(C(F)(F)F)c3)[C@@H](C(F)(F)F)O2)cc1C(F)(F)F [Example 144, (2R,5S)-N,3-bis(4-cyano-3-(trifluoromethyl)phenyl)-2-(trifluoromethyl)oxazolidine-5-carboxamide] | 11.1 nM |
| CCc1cc(C#N)ccc1NC(=O)[C@@H]1CN(c2ccc(C#N)c(C(F)(F)F)c2)[C@@H](C(F)(F)F)O1 [Example 145, (2R,5S)-N-(4-cyano-2-ethylphenyl)-3-(4-cyano-3-(trifluoromethyl)phenyl)-2-(trifluoromethyl)oxazolidine-5-carboxamide] | 305 nM |
| N#Cc1ccc(NC(=O)[C@@H]2CN(c3ccc(C#N)c(C(F)(F)F)c3)[C@@H](C(F)(F)F)O2)cc1F [Example 147, (2R,5S)-3-(4-cyano-3-(trifluoromethyl)phenyl)-N-(4-cyano-3-fluorophenyl)-2-(trifluoromethyl)oxazolidine-5-carboxamide] | 768 nM |
| N#Cc1ccc(N2C[C@@H](C(=O)Nc3ccc(O)cc3)O[C@@H]2C(F)(F)F)cc1C(F)(F)F [Example 148, (2R,5S)-3-(4-cyano-3-(trifluoromethyl)phenyl)-N-(4-hydroxyphenyl)-2-(trifluoromethyl)oxazolidine-5-carboxamide] | 13.5 nM |
| N#Cc1ccc(N2C[C@@H](C(=O)Nc3ccc([N+](=O)[O-])cc3Cl)O[C@@H]2C(F)(F)F)cc1C(F)(F)F [Example 151, (2R,5S)-N-(2-chloro-4-nitrophenyl)-3-(4-cyano-3-(trifluoromethyl)phenyl)-2-(trifluoromethyl)oxazolidine-5-carboxamide] | 43.7 nM |
| N#Cc1ccc(N2C[C@@H](C(=O)Nc3ccc(N)cc3Cl)O[C@@H]2C(F)(F)F)cc1C(F)(F)F [Example 152, (2R,5S)-N-(4-amino-2-chlorophenyl)-3-(4-cyano-3-(trifluoromethyl)phenyl)-2-(trifluoromethyl)oxazolidine-5-carboxamide] | 521 nM |
| COC(=O)Nc1ccc(NC(=O)[C@@H]2CN(c3ccc(C#N)c(C(F)(F)F)c3)[C@@H](C(F)(F)F)O2)c(Cl)c1 [Example 154, methyl(3-chloro-4-((2R,5S)-3-(4-cyano-3-(trifluoromethyl)phenyl)-2-(trifluoromethyl)oxazolidine-5-carboxamido)phenyl)carbamate] | 27.8 nM |
| N#Cc1ccc(N2C[C@@H](C(=O)Nc3ccc([N+](=O)[O-])cc3)O[C@@H]2C(F)(F)F)cc1C(F)(F)F [Example 155, (2R,5S)-3-(4-cyano-3-(trifluoromethyl)phenyl)-N-(4-nitrophenyl)-2-(trifluoromethyl)oxazolidine-5-carboxamide] | 823 nM |
| N#Cc1ccc(N2C[C@@H](C(=O)Nc3ccc(N)cc3)O[C@@H]2C(F)(F)F)cc1C(F)(F)F [Example 156, (2R,5S)-N-(4-aminophenyl)-3-(4-cyano-3-(trifluoromethyl)phenyl)-2-(trifluoromethyl)oxazolidine-5-carboxamide] | 323 nM |
| COC(=O)Nc1ccc(NC(=O)[C@@H]2CN(c3ccc(C#N)c(C(F)(F)F)c3)[C@@H](C(F)(F)F)O2)cc1 [Example 157, methyl(4-((2R,5S)-3-(4-cyano-3-(trifluoromethyl)phenyl)-2-(trifluoromethyl)oxazolidine-5-carboxamido)phenyl)carbamate] | 231 nM |
| CCC(=O)Nc1ccc(NC(=O)[C@@H]2CN(c3ccc(C#N)c(C(F)(F)F)c3)[C@@H](C(F)(F)F)O2)cc1 [Example 158, (2R,5S)-3-(4-cyano-3-(trifluoromethyl)phenyl)-N-(4-propionamidophenyl)-2-(trifluoromethyl)oxazolidine-5-carboxamide] | 12.5 nM |
| CC(C)C(=O)Nc1ccc(NC(=O)[C@@H]2CN(c3ccc(C#N)c(C(F)(F)F)c3)[C@@H](C(F)(F)F)O2)cc1 [Example 159, (2R,5S)-3-(4-cyano-3-(trifluoromethyl)phenyl)-N-(4-isobutylamidophenyl)-2-(trifluoromethyl)oxazolidine-5-carboxamide] | 288 nM |
| N#Cc1ccc(N2C[C@@H](C(=O)Nc3ccc(NC(=O)CO)cc3)O[C@@H]2C(F)(F)F)cc1C(F)(F)F [Example 160, (2R,5S)-3-(4-cyano-3-(trifluoromethyl)phenyl)-N-(4-(2-hydroxyacetamido)phenyl)-2-(trifluoromethyl)oxazolidine-5-carboxamide] | 105 nM |
| N#Cc1ccc(N2C[C@@H](C(=O)Nc3ccc(NC(N)=O)cc3)O[C@@H]2C(F)(F)F)cc1C(F)(F)F [Example 161, (2R,5S)-3-(4-cyano-3-(trifluoromethyl)phenyl)-2-(trifluoromethyl)-N-(4-ureidophenyl)oxazolidine-5-carboxamide] | 240 nM |
| N#CCC(=O)Nc1ccc(NC(=O)[C@@H]2CN(c3ccc(C#N)c(C(F)(F)F)c3)[C@@H](C(F)(F)F)O2)cc1 [Example 162, (2R,5S)-3-(4-cyano-3-(trifluoromethyl)phenyl)-N-(4-(2-cyanoacetamido)phenyl)-2-(trifluoromethyl)oxazolidine-5-carboxamide] | 149 nM |
| N#Cc1ccc(N2C[C@@H](C(=O)Nc3ccc(NC(=O)CN)cc3)O[C@@H]2C(F)(F)F)cc1C(F)(F)F [Example 163, (2R,5S)-N-(4-(2-aminoacetamido)phenyl)-3-(4-cyano-3-(trifluoromethyl)phenyl)-2-(trifluoromethyl)oxazolidine-5-carboxamide hydrochloride] | 214 nM |
| N#Cc1ccc(N2C[C@@H](C(=O)N3CCC(C#N)CC3)O[C@@H]2C(F)(F)F)cc1C(F)(F)F [Example 167] | 44 nM |
| CC(=O)N1CCC(NC(=O)[C@@H]2CN(c3ccc(C#N)c(C(F)(F)F)c3)[C@@H](C(F)(F)F)O2)CC1 [Example 170, (2R,5S)-N-(1-acetylpiperidin-4-yl)-3-(4-cyano-3-(trifluoromethyl)phenyl)-2-(trifluoromethyl)oxazolidine-5-carboxamide] | 3560 nM |
| CC(=O)N1CCN(C(=O)[C@@H]2CN(c3ccc(C#N)c(C(F)(F)F)c3)[C@@H](C(F)(F)F)O2)CC1 [Example 172, 4-((2R,5S)-5-(4-acetylpiperazine-1-carbonyl)-2-(trifluoromethyl)oxazolidin-3-yl)-2-(trifluoromethyl)benzonitrile] | 699 nM |
